Experiments:
[1] = system: influenza A/victoria/H3N2; details: 160 ppm exogenous gNO, virions or incubated cells, MDCK cell model; cited from earlier work
[2] = Phase I open label safety study in healthy adults: adverse events and vital signs; format: in vivo, human
Excerpt: 10 healthy adult volunteer subjects (5 males, 5 females), aged 20 to 62 years, were enrolled in the study after screening their medical history, a physical examination, pulmonary function tests and blood values. Exclusion criteria included individuals less than 19 years of age, pregnant females and unwilling to practice birth control during the study, diagnosed with pulmonary disease, epistaxis, hemoptysis, methemoglobinemia, organ transplant recipient or receiving antibiotic therapy.
(§1) After obtaining informed consent, treatment was initiated within 5 days of enrollment. Subjects were housed in a hospital ward and received 160 ppm gNO for 30 minutes every four hours (Q4 h), five times a day, for five consecutive days by inhalation. Subjects returned for follow-up evaluations 3, 7 and 21 days after the final gNO administration. Subject safety was determined by monitoring vital signs, methemoglobin levels, lung function, blood chemistry, hematology, prothrombin time, inflammatory cytokine/chemokines levels and endothelial activation.
Subjects were administered gNO through a modified disposable mouthpiece to maximize mixing. Inspiration was spontaneously initiated by the subject from a conventional intermittent positive pressure breathing respirator (Mark-7, Carefusion, USA) in fixed flow mode delivering 48 liters per minute (LPM). Flows of gas were verified with a calibrated mass flow meter (TSI, USA). Gaseous nitric oxide (gNO, obtained at INOmax, Ikaria, USA) at a concentration of 800 ppm delivered at a flow of 12 LPM was titrated into a distal delivery port on the mouth piece connected to the respirator during inspiratory phase only (pressure switch). The Mark 7 respirator was supplied by an air/oxygen blender (Bird Sentry, Carefusion, USA) set to deliver 26% oxygen.
Cardiovascular status was determined by monitoring heart rate, blood pressure, respiratory rate and temperature. Values were recorded prior to the start of each gNO administration, following a 5 minute rest. During treatments, vital signs (except temperature) were also performed 15 minutes after the start of the treatment and at the end of gNO administration and recorded. After the first treatment each day, vital signs were recorded at every 30 minutes until the start of the second gNO administration of the day.

[3] = system: S. maltophilia; details: 200 ppm gNO, saline suspension; cited from earlier work
[4] = system: P. aeruginosa; details: cited from earlier work
[5] = Phase I safety study: pulmonary function tests; format: in vivo, human
Protocol: as §1
Subjects underwent full pulmonary function tests (PFT), including lung diffusing capacity (DLCO) by a trained technician utilizing a calibrated pulmonary function system (Jaeger MasterScreen, VIASYS Healthcare, USA) on screening and days 2, 8, 12 and 26. Spirometry test (Microloop by Micro Medical, England) was performed on days 1, 3 and 4. Effect of gNO on lung function and DLCO was determined by changes from baseline, treatment days and follow up days.

[6] = topical 200 ppm gNO, cited from earlier work
[7] = system: Acinetobacter sp.; details: 200 ppm gNO, saline suspension; cited from earlier work
[8] = system: MRSA; details: 200 ppm gNO, saline suspension; cited from earlier work
[9] = system: Klebsiella sp.#2; details: 200 ppm gNO, saline suspension; cited from earlier work
[10] = system: Group B Streptococci; details: 200 ppm gNO, saline suspension; cited from earlier work
[11] = Phase I safety study: hematology, clinical chemistry and coagulation; format: in vivo, human; details: end of study; baseline 0.15; p=0.104
Protocol: as §1
Hematological assessment included a complete blood count and differentials (hemoglobin, hematocrit, red blood cell count, white blood cell count, white blood cell differential, and platelet count) were obtained in order to monitor blood chemistry, hematology and inflammation measurements. […] The effect of gNO on coagulation was determined by the prothrombin time (PT) and its derived measures of prothrombin ratio (PR) and international normalized ratio (INR). […] Plasma cytokine levels were assessed using the human inflammation cytokine bead array kit (BD Bioscience, Canada). Plasma levels of angiopoietin Ang-1 and Ang-2 were determined by ELISA (R&D Systems, USA).

[12] = system: Serracia sp.; details: 200 ppm gNO, saline suspension; cited from earlier work
[13] = system: P. aeruginosa (ATCC); details: 200 ppm gNO, saline suspension; cited from earlier work
[14] = levels of gNO greater than 120 ppm
[15] = vs baseline during the course of the study

For `[N]=O` [gNO, nitric oxide], the “viral replication and infectivity” value [1] is given as “reduced not only viral replication but also their infectivity”, the “minor adverse events reported” value ([2]; 160 ppm gNO 30 minutes, five times a day, five days, 10 healthy adults) is given as “Three minor adverse events were reported” and the “tolerability and adverse events” value ([2]; 160 ppm gNO 30 minutes, five times a day, five days, 10 healthy adults, 250 administrations) is given as “well tolerated and no significant adverse events were observed”. The vital signs ([2]; during and after 160 ppm gNO administration) was “remained within normal limits”, the blood pressure ([2]; during or after 160 ppm gNO administration) was “no drop in blood pressure” and the “LD100” value [3] was 4 h. The “Latent Period” value [3] was 2 h, the “−2.5 Log10 (hours)” value [3] was 2.8 hours and the “reduction of colony formation” value [4, 14] was “greater than 90%”. For the same molecule, the “time required to achieve greater than 90% reduction of colony formation” value [4, 14] was 8 to 12 h, the “survival (downward bactericidal trend)” value ([4]; solid media, increasing gNO concentration up to 160 ppm, vs medical air) was 5-10% and the pulmonary function tests ([5]; during and after gNO administration) was “did not reveal any abnormalities”. For the same molecule, the DLCO ([5]; vs baseline) was “did not change from baseline”, the “forced vital capacity (FVC)” value ([5]; vs baseline) was “did not change from baseline” and the “residual volume (RV)” value ([5]; vs baseline) was “did not change from baseline”. For the same molecule, the “total lung capacity (TLC)” value ([5]; vs baseline) was “did not change from baseline”, the FEV1 [5, 15] was “did not differ from baseline” and the “maximum mid-expiratory flow (MMEF)” value [5, 15] was “did not differ from baseline”. For the same molecule, the wound size reduction ([6]; at one week) was 42%, the biofilm presence ([6]; within the first three days of treatment) was “no longer visibly present” and the “LD100” value [7] was 6 h. The “Latent Period” value [7] was 4 h, the “−2.5 Log10 (hours)” value [7] was 5 hours and the “LD100” value [8] was 5 h. For the same molecule, the “Latent Period” value [8] was 3 h, the “−2.5 Log10 (hours)” value [8] was 4.2 hours and the “LD100” value [9] was 5 h. For the same molecule, the “Latent Period” value [9] was 2 h, the “−2.5 Log10 (hours)” value [9] was 4.1 hours and the “LD100” value [10] was 2 h. The “Latent Period” value [10] was 1 h, the “−2.5 Log10 (hours)” value [10] was 1.5 hours and the eosinophil cell numbers [11] was 0.19 giga/L. For the same molecule, the “LD100” value [12] was 6 h, the “Latent Period” value [12] was 4 h and the “−2.5 Log10 (hours)” value [12] was 4.9 hours. For the same molecule, the “LD100” value [13] was 3 h, the “Latent Period” value [13] was 1 h and the “−2.5 Log10 (hours)” value [13] was 2.1 hours.

Reference: patent US20150044305A1, “[…] NITRIC OXIDE FOR TREATING RESPIRATORY DISEASES” (Advanced Inhalation Therapies (AIT) Ltd., priority 2012, published 2015)
